[invAb] = 3' inverted deoxyabasic cap; [amino-N] = 2'-deoxy-2'-amino nucleotide (N: the base); [I] = hypoxanthine (inosine); m = 2'-O-methyl; r = 2'-OH (RNA)
Tested on: plus strand HCV RNA
Format: biochemical, Hepatitis C virus
Conditions: plus strand (+) HCV site, 50 mM Tris-Cl, pH 8.0, 40 mM Mg2+ at 37°, trace substrate, enzymatic nucleic acid concentration of 500 nM or greater

| Substance | % Substrate Cleaved in 3 hours |
| --- | --- |
| 22720 (GGAGAGGUGAUGGCAUGCACUAUGCGCGAUAUACA; sugars from the 5' end mmmmmmmmrrrmmmmmrmmmmmmmmmrmmmmmmmm, [invAb] at 3' end, backbone not given here) [compound 22720] | 77.74% |
| 22944 (UCCUGUUCUGAUGAGGCCGUUAGGCCGAAAUGUGCC; 2'-O-methyl at 1, 2, 3, 4, 5, 6, 7, 15, 16, 17, 18, 19, 20, 21, 22, 23, 24, 25, 26, 31, 32, 33, 34, 35, 36, [invAb] at 3' end, other sugars and backbone not given here) [compound 22944] | 90.33% |
| 22748 (AGGUGAAGCCGAAAGGCGAGUGAGGUCUAGCUGAG; 2'-O-methyl at 1, 2, 3, 4, 5, 6, 7, 8, 9, 10, 11, 12, 13, 14, 15, 16, [amino-N] at 17, 27, [invAb] at 3' end, other sugars and backbone not given here) [compound 22748] | 80.28% |
| 22775 (AAGAGGACUGAUGAGGCCGUUAGGCCGAANAUAGAG; ribozyme; 2'-O-methyl at 1, 2, 3, 4, 5, 6, 7, 15, 16, 17, 18, 19, 20, 21, 22, 23, 24, 25, 26, 31, 32, 33, 34, 35, 36, [I] at 30, [invAb] at 3' end, other sugars and backbone not given here) [compound 22775] | 87.74% |
